As usually defined, the pEC50 is the negative decadic logarithm of the EC50, by convention in mol/L.

In US20240368174A1, “Antiviral Heterocyclic Compounds” (Enanta Pharmaceuticals, Inc., priority 2023, published 2024) one finds EC50 data, which are given here for 40 compounds.

SMILES strings stand for the structures. pEC50: −log10 of the molar value.

Assay [1] has as its system HMPV clinical isolate A2 strain TN 94-49. Put plainly: HMPV antiviral assay, Method 2 (LLC-MK2 cells with CP-100-356, ATP-Lite). To be noted: human metapneumovirus. It counts as cell-based. The gist of the method:
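LLC-MK2 rhesus kidney cells (5,000/well) infected in suspension with HMPV A2 TN 94-49 at MOI 0.16, in serum-free medium with final 2 μg/mL TPCK-trypsin and 2 μM CP-100-356. Compounds tested in duplicate from 200 nM, 2.5-fold, 10 points; 7 days at 37 °C. Cell health by ATP-Lite luminescence; EC50 by four-parameter fit.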

Assay [2] has as its system genotype A, “Long” strain RSV. The assay can be described thus: RSV-A assay (CPE, ATPlite readout in Hep-2 cells). In kind it is cell-based, Human respiratory syncytial virus. To be noted: human respiratory syncytial virus, activity class. In short, it runs like this:
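Hep-2 cells (8,000/well) were treated with 2-fold serial compound dilutions in duplicate and infected with RSV at MOI 0.1. After 5 days, protection from cytopathic effect was measured as cell viability by ATPlite luminescence, and EC50 values were derived.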
A general note: ATP-based viability assays read luminescence as a measure of living cells.

Setting [3] is: hMPV A2 TN/94-49, LLC-MK2 cells with CP-100-356, Method 2.
Setting [4] is: 168 h, hMPV A2 TN/94-49, LLC-MK2 cells with 4 μM CP-100-356, 7 days, ATP-Lite.

Take `COc1cc(C(=O)NC[C@](O)(c2cc3c(c(-c4ccsc4Cl)n2)OC[C@]3(C)C(N)=O)C2CC2)cc2cn(C3CC3)nc12` [Example 415]: the pEC50 in assay [1] (setting [3]) and in assay [2] was above 6.70 each time.
As to `COc1cc(C(=O)NC[C@](O)(c2cc3c(c(-c4csc(Cl)c4)n2)OC[C@]3(C)C(N)=O)C2CC2)cc2cn(C3CC3)nc12` [Example 416], the pEC50 in assay [1] (setting [3]) and in assay [2] was above 6.70 throughout.
For `COc1cc(C(=O)NC[C@](O)(c2cc3c(c(-c4cc(Cl)ncc4C)n2)OC[C@]3(C)C(N)=O)C2CC2)cc2cn(C3CC3)nc12` [Example 417], the pEC50 in assay [1] (setting [3]) and in assay [2] was above 6.70 throughout.
`COc1cc(C(=O)NC[C@](O)(c2cc3c(c(-n4ccc5ccccc54)n2)OC[C@]3(C)C(N)=O)C2CC2)cc2cn(C3CC3)nc12` [Example 443]: the pEC50 in assay [1] (setting [3]) and in assay [2] was above 6.70 each time.
On to `C#CC(O)(CNC(=O)c1cc(OC)c2nn(C3CC3)cc2c1)c1cc2c(c(-c3cc(Cl)c(F)cc3F)n1)OC[C@]2(C)C(N)=O` (some centres unmarked) [Example 473], for which the pEC50 was below 6.70 in assay [1] (setting [3]) and above 6.70 in assay [2].
On to `COc1cc(C(=O)NC[C@](O)(c2cc3c(c(-c4cc(Cl)c(F)cc4F)n2)OC[C@]3(C)C(N)=O)C(C)C)cc2cn(C3CC3)nc12` [Example 476], for which the pEC50 in assay [1] (setting [3]) and in assay [2] was above 6.70 throughout.
As to `COc1cc(C(=O)NC[C@@](O)(C#CC(C)(C)O)c2cc3c(c(-c4cc(Cl)c(F)cc4F)n2)OC[C@]3(C)C(N)=O)cc2cn(C3CC3)nc12` [Example 477], the pEC50 was below 6.70 in assay [1] (setting [3]) and above 6.70 in assay [2].
The corresponding values for `COc1cc(C(=O)NC[C@@](O)(CC2CC2)c2cc3c(c(-c4cc(Cl)c(F)cc4F)n2)OC[C@]3(C)C(N)=O)cc2cn(C3CC3)nc12` [Example 517] are below 6.70 and below 6.70.
As to `COC1=CC(C(=O)NC[C@](O)(c2cc3c(c(-c4ccnc(C)c4Cl)n2)OC[C@]3(C)C(N)=O)C2(F)CC2)=CC2OC(C3CC3)=NC12` (some centres unmarked) [Example 526], the pEC50 in assay [1] (setting [3]) and in assay [2] was above 6.70 each time.
With `COc1cc(C(=O)NC[C@](O)(c2cc3c(c(-c4ccnc(C)c4Cl)n2)OC[C@]3(C)C(N)=O)C2(F)CC2)cc2cn(C(F)F)nc12` [Example 527], the negative logarithm of the EC50 (pEC50) in assay [1] (setting [3]) is below 6.70; in assay [2], above 6.70.
Turning to `COc1cc(C(=O)NC[C@](O)(c2cc3c(c(-c4ccnc(C)c4Cl)n2)OC[C@]3(C)C(N)=O)C2(F)CC2)cc2cn(C3CC3)nc12` [Example 531], the pEC50 in assay [1] (setting [3]) and in assay [2] was above 6.70 throughout.
As for `COc1cc(C(=O)NC[C@](O)(c2cc3c(c(-c4ccnc(C(F)(F)F)c4Cl)n2)OC[C@]3(C)C(N)=O)C(F)(F)F)cc2cn(C3(F)CC3)nc12` [Example 534], the pEC50 in assay [1] (setting [3]) and in assay [2] was above 6.70 in each case.
`COc1cc(C(=O)NC[C@](O)(c2cc3c(c(-c4ccnc(C(F)(F)F)c4Cl)n2)OC[C@]3(C)C(N)=O)C(F)(F)F)cc2oc(C3CC3)nc12` [Example 536]: the pEC50 in assay [1] (setting [3]) and in assay [2] was above 6.70 in each case.
Turning to `COc1cc(C(=O)NC[C@](O)(c2cc3c(c(-c4ccnc(C(F)F)c4Cl)n2)OC[C@]3(C)C(N)=O)C2CC2)cc2oc(C(F)F)nc12` [Example 542], the pEC50 in assay [1] (setting [3]) and in assay [2] was above 6.70 throughout.
Regarding `COc1nccc(-c2nc([C@@](O)(CNC(=O)c3cc(OC)c4nn(C5(F)CC5)cc4c3)C(F)(F)F)cc3c2OC[C@]3(C)C(N)=O)c1Cl` [Example 543], the pEC50 in assay [1] (setting [3]) and in assay [2] was above 6.70 in each case.
In the case of `COc1cc(C(=O)NC[C@](O)(c2cc3c(c(-c4ccnc(C(F)F)c4Cl)n2)OC[C@]3(C)C(N)=O)C(F)(F)F)cc2cn(C3(F)CC3)nc12` [Example 548], the pEC50 in assay [1] (setting [3]) and in assay [2] was above 6.70 each time.
Take `COc1cc(C(=O)NC[C@](O)(c2cc3c(c(-c4ccnc(C(F)F)c4Cl)n2)OC[C@]3(C)C(N)=O)C(F)(F)F)cc2oc(C3CC3)nc12` [Example 550]: the pEC50 in assay [1] (setting [3]) and in assay [2] was above 6.70 in each case.
Consider `COc1cc(C(=O)NC[C@](O)(c2cc3c(c(-c4ccnc(C(F)(F)F)c4Cl)n2)OC[C@]3(C)C(N)=O)C2CC2)cc2cc(C3CC3)nn12` [Example 579], for which the pEC50 in assay [1] (setting [3]) and in assay [2] was above 6.70 each time.
`COc1cc(C(=O)NC[C@](O)(c2cc3c(c(-c4ccnc(C(F)(F)F)c4Cl)n2)OC[C@]3(C)C(N)=O)C2CC2)cc2oc(C(F)F)nc12` [Example 581]: the pEC50 in assay [1] (setting [3]) and in assay [2] was above 6.70 in each case.
`COc1nccc(-c2nc([C@@](O)(CNC(=O)c3cc(OC)n4nc(C5CC5)cc4c3)C3CC3)cc3c2OC[C@]3(C)C(N)=O)c1Cl` [Example 582]: the pEC50 in assay [1] (setting [3]) and in assay [2] was above 6.70 throughout.
As to `COc1nccc(-c2nc([C@@](O)(CNC(=O)c3cc(OC4CC4)c4nn(C5CC5)cc4c3)C3CC3)cc3c2OC[C@]3(C)C(N)=O)c1Cl` [Example 585], the pEC50 in assay [1] (setting [3]) and in assay [2] was above 6.70 each time.
For the compound `COc1cc(C(=O)NC[C@](O)(c2cc3c(c(-c4cccc(F)c4Cl)n2)OC[C@]3(C)C(N)=O)C(F)(F)F)cc2cn(C3(F)CC3)nc12` [Example 611], the pEC50 in assay [1] (setting [3]) and in assay [2] was above 6.70 throughout.
Take `COc1cc(C(=O)NC[C@](O)(c2cc3c(c(-n4ncc5c(F)cccc54)n2)OC[C@]3(C)C(N)=O)C2CC2)cc2cn(C3(F)CC3)nc12` [Example 613]: the pEC50 in assay [1] (setting [3]) and in assay [2] was above 6.70 throughout.
For `COc1cc(C(=O)NC[C@](O)(c2cc3c(c(-c4cccc(F)c4Cl)n2)OC[C@]3(C)C(N)=O)C2CC2)cc2cn(C3(F)CC3)nc12` [Example 615], the negative-log EC50 (pEC50) in assay [1] (setting [3]) and in assay [2] was above 6.70 throughout.
For the compound `COc1cc(C(=O)NC[C@](O)(c2cc3c(c(-n4ncc5c(F)cccc54)n2)OC[C@]3(C)C(N)=O)C2CC2)cc2oc(C3CC3)nc12` [Example 622], the pEC50 in assay [1] (setting [4]) and in assay [2] was above 6.70 throughout.
On to `COc1cc(C(=O)NC[C@@](O)(c2ccccc2)c2cc3c(c(-n4ncc5c(F)cccc54)n2)OC[C@]3(C)C(N)=O)cc2cn(C3CC3)nc12` [Example 628], for which the pEC50 in assay [1] (setting [4]) and in assay [2] was above 6.70 each time.
On to `COc1cc(C(=O)NC[C@@](O)(c2ccccc2)c2cc3c(c(-n4ncc5c(F)cccc54)n2)OC[C@]3(C)C(N)=O)cc2cn(C3(F)CC3)nc12` [Example 629], for which the pEC50 in assay [1] (setting [4]) and in assay [2] was above 6.70 in each case.
Turning to `COc1cc(C(=O)NC[C@@](O)(c2ccccc2)c2cc3c(c(-n4ncc5c(F)cccc54)n2)OC[C@]3(C)C(N)=O)cc2cc(C3CC3)nn12` [Example 630], the pEC50 in assay [1] (setting [4]) and in assay [2] was above 6.70 each time.
Regarding `COc1cc(C(=O)NC[C@@](O)(c2ccccc2)c2cc3c(c(-n4ncc5c(F)cccc54)n2)OC[C@]3(C)C(N)=O)cc2oc(C3CC3)nc12` [Example 631], the pEC50 in assay [1] (setting [4]) and in assay [2] was above 6.70 in each case.
`COc1cc(C(=O)NC[C@](O)(c2cc3c(c(-c4cc(C(F)(F)F)ncc4F)n2)OC[C@]3(C)C(N)=O)C2CC2)cc2cc(C3CC3)nn12` [Example 661]: the pEC50 in assay [1] (setting [4]) and in assay [2] was above 6.70 in each case.
On to `COc1cc(C(=O)NC[C@](O)(c2cc3c(c(-c4cc(C(F)(F)F)ncc4F)n2)OC[C@]3(C)C(N)=O)C2CC2)cn2cc(C3CC3)nc12` [Example 662], for which the pEC50 in assay [1] (setting [4]) and in assay [2] was above 6.70 each time.
With `COc1cc(C(=O)NC[C@](O)(c2cc3c(c(-c4cc(C(F)(F)F)ncc4F)n2)OC[C@]3(C)C(N)=O)C2(F)CC2)cc2oc(C3CC3)nc12` [Example 670], the pEC50 in assay [1] (setting [4]) and in assay [2] was above 6.70 in each case.
With `C[C@]1(C(N)=O)COc2c1cc([C@@](O)(CNC(=O)c1cc(Cl)c3nn(C4CC4)cc3c1)C1(F)CC1)nc2-c1cc(C(F)(F)F)ncc1F` [Example 671], the pEC50 in assay [1] (setting [4]) and in assay [2] was above 6.70 throughout.
As to `C[C@]1(C(N)=O)COc2c1cc([C@@](O)(CNC(=O)c1cc(OCCO)c3nn(C4CC4)cc3c1)C1CC1)nc2-c1ccc2c(c1Cl)OC(F)(F)O2` [Example 681], the pEC50 in assay [1] (setting [4]) and in assay [2] was above 6.70 throughout.
Take `COc1cc(C(=O)NC[C@](O)(c2cc3c(c(-n4ccc5c(F)cccc54)n2)OC[C@]3(C)C(N)=O)C2(F)CC2)cc2cn(C(F)F)nc12` [Example 688]: the pEC50 in assay [1] (setting [4]) and in assay [2] was above 6.70 throughout.
On to `COc1cc(C(=O)NC[C@](O)(c2cc3c(c(-n4ccc5c(F)cccc54)n2)OC[C@]3(C)C(N)=O)C2(F)CC2)cc2cn(C3(F)CC3)nc12` [Example 689], for which the pEC50 in assay [1] (setting [4]) and in assay [2] was above 6.70 throughout.
With `COc1cc(C(=O)NC[C@](O)(c2cc3c(c(-n4ccc5c(F)cccc54)n2)OC[C@]3(C)C(N)=O)C2(F)CC2)cn2cc(C3CC3)nc12` [Example 690], the pEC50 in assay [1] (setting [4]) and in assay [2] was above 6.70 throughout.
For the compound `COc1cc(C(=O)NC[C@](O)(c2cc3c(c(-c4ccnc(C5CC5)c4Cl)n2)OC[C@]3(C)C(N)=O)C2CC2)cc2cn(C3CC3)nc12` [Example 721], the pEC50 in assay [1] (setting [4]) and in assay [2] was above 6.70 each time.
In the case of `COc1cc(C(=O)NC[C@](O)(c2cc3c(c(-c4cncc(OC(F)F)c4Cl)n2)OC[C@]3(C)C(N)=O)C2CC2)cc2cn(C(F)F)nc12` [Example 742], the pEC50 in assay [1] (setting [4]) and in assay [2] was above 6.70 in each case.
With `COc1nccc(-c2nc([C@@](O)(CNC(=O)c3cc(OC)c4nc(C5CC5)oc4c3)C3CC3)cc3c2OC[C@]3(C)C(N)=O)c1Cl` [Example 745], the pEC50 in assay [1] (setting [4]) and in assay [2] was above 6.70 in each case.
